Measured values reported in patent US10226453B2, “3-(1H-indol-2-yl)-1H-pyrazolo[4,3-B]pyridines and therapeutic uses thereof” (Samumed, LLC, priority 2015, dated 2019).

Legend:
Type in all cases: cell-based
[1] = test system: IL-6 (THP-1 cells); experiment: IL-6 inhibition in LPS-stimulated THP-1 human monocyte cells (HTRF); conditions: LPS 500 ng/mL, 22 hours, IL6 HTRF
Protocol: Human monocyte cell line (THP-1 cells; Catalog # TIB-202, ATCC, Manassas, Va.) were cultured in Roswell Park Memorial Institute (RPMI) 1640 Medium (Catalog #21870-100, Buffalo, N.Y.) with 1% L-glutamine, 1% HEPES, 1% Sodium Pyruvate, 2% Sodium Bicarbonate supplemented with 100 units/mL penicillin, 50 μg/mL streptomycin, 2-mercaptoethanol (0.05 mM) [basal medium] and 10% fetal bovine serum (Catalog #16140089, Life Technologies, Carlsbad, Calif.) at 37° C. and 5% CO2.
THP-1 cells were cultured in basal media with 1% FBS for 24 hours before the start of the assay. Each compound was dissolved in DMSO as a 10 mM stock and used to prepare compound source plates. Serial dilution (1:3, 10-point dose-response curves starting from 10 μM) and compound transfer was performed using the ECHO 550 (Labcyte, Sunnyvale, Calif.) into 384-well white low volume assay plates (Greiner Bio-One) with appropriate DMSO backfill for a final DMSO concentration of 0.1%. THP-1 cells were plated at 5000 cells/well in the 384-well plates and incubated at 37° C. for 2 h. 500 ng/mL of LPS was added after 2 hours and cells were incubated for another 22 hours at 37° C. Plates were spun in a centrifuge for 1 minute at […] and a mixture of anti-IL6 XL665, and anti-IL6 Cryptate diluted in reconstitution buffer (Cisbio Inc.) was added to each well. Following incubation for 3 hrs at room temperature, Homogeneous Time-Resolved Fluorescence (HTRF) was measured using the Envision (Perkin Elmer) at 665 nm and […]. The ratio of fluorescence at 665 nm to 620 nm was used as a readout for IL6 quantification. All samples were processed in duplicate. Readings were normalized to DMSO treated cells and normalized activities were utilized for EC50 calculations using the dose-response log (inhibitor) vs. response-variable slope (four parameters) nonlinear regression feature available in GraphPad Prism 5.0 (or Dotmatics). For EC50 of >10 μM, the percent inhibition at 10 μM is provided.

[2] = test system: primary human fibroblasts derived from IPF patients (LL29 cells) treated with TGF-β1; experiment: Inhibition of the fibrotic process: αSMA staining in TGF-β1 treated primary human fibroblasts from IPF patients (LL29 cells); conditions: Fibroblast, 96 h, TGF-β1 20 ng/mL, 4 days, % αSMA positive cells
Description: Representative compounds were screened using primary human fibroblasts (derived from IPF patients) treated with TGF-β1 to determine their ability to inhibit the fibrotic process.
Primary human fibroblasts derived from IPF patients (LL29 cells) [^1Xiaoqiu Liu, et. al., “Fibrotic Lung Fibroblasts Show Blunted Inhibition by cAMP Due to Deficient cAMP Response Element-Binding Protein Phosphorylation”, Journal of Pharmacology and Experimental Therapeutics (2005), 315(2), 678-687; ^2Watts, K. L., et. al., “RhoA signaling modulates cyclin D1 expression in human lung fibroblasts; implications for idiopathic pulmonary fibrosis”, Respiratory Research (2006), 7(1), 88] were obtained from American Type Culture Collection (ATCC) and expanded in F12 medium supplemented with 15% Fetal Bovine Serum and Penicillin/Streptomycin.
Each compound was dissolved in DMSO as a 10 mM stock and used to prepare compound source plates. Serial dilution (1:2, 11-point dose-response curves from 10 μM to 1.87 nM) and compound transfer was performed using the ECHO 550 (Labcyte, Sunnyvale, Calif.) into 384-well clear bottom assay plates (Greiner Bio-One) with appropriate DMSO backfill for a final DMSO concentration of 0.1%. LL29 cells are plated at 1,500 cells/well in 80 μL/well F12 medium supplemented with 1% Fetal Bovine Serum. One hour after addition of the cells, TGF-β1 (Peprotech; 20 ng/mL) was added to the plates to induce fibrosis (ref. 1 and 2 above). Wells treated with TGF-β1 and containing DMSO were used as controls. Cells were incubated at 37° C. and 5% CO2 for 4 days. Following incubation for 4 days, SYTOX green nucleic acid stain (Life Technologies [Thermo Fisher Scientific]) was added to the wells at a final concentration of 1 μM and incubated at room temperature for 30 min. Cells were then fixed using 4% formaldehyde (Electron Microscopy Sciences), washed 3 times with PBS followed by blocking and permeabilization using 3% Bovine Serum Albumin (BSA; Sigma) and 0.3% Triton X-100 (Sigma) in PBS. Cells were then stained with antibody specific to α-smooth muscle actin (αSMA; Abcam) (ref. 1 and 2 above) in 3% Bovine Serum Albumin (BSA; Sigma) and 0.3% Triton X-100 (Sigma) in PBS, and incubated overnight at 4° C. Cells were then washed 3 times with PBS, followed by incubation with Alexa Flor-647 conjugated secondary antibody (Life Technologies [Thermo Fisher Scientific]) and DAPI at room temperature for 1 hour. Cells were then washed 3 times with PBS and plates were sealed for imaging. αSMA staining was imaged by excitation at 630 nm and emission at 665 nm and quantified using the Compartmental Analysis program on the CellInsight CX5 (Thermo Scientific). Dead or apoptotic cells were excluded from analysis based on positive SYTOX green staining. % of total cells positive for αSMA were counted in each well and normalized to the average of 11 wells treated with TGF-β1 on the same plate using Dotmatics' Studies Software. The normalized averages (fold change over untreated) of 3 replicate wells for each compound concentration were used to create dose-responses curves and EC50 values were calculated using non-linear regression curve fit in the Dotmatics' Studies Software. For EC50 of >10 μM, the percent inhibition at 10 μM is provided.

[3] = test system: SW480 colon cancer cells; experiment: Cell viability assay (CellTiter-Blue), SW480 colon cancer cells; conditions: Homo sapiens, 96 h, four days, CellTiter-Blue
Protocol: Representative compounds were screened using the following assay procedure to assess the effect on cell viability as described below.
Each compound was dissolved in DMSO as a 10 mM stock and used to prepare compound source plates. Serial dilution (1:3, 8-point dose-response curves from 10 μM to 0.0045 μM) and compound transfer was performed using the ECHO 550 (Labcyte, Sunnyvale, Calif.) into 96-well clear bottom, black-walled plates (Corning—Costar).
Approximately 2×10^3 SW480 colon cancer cells were seeded into each well and allowed to incubate in the presence or absence of compound for four days at 37° C./5% CO2. Eight replicates of DMSO-treated cells served as controls and cells treated with compound were performed in duplicate.
After incubation, 20 μL of CellTiter-Blue (Promega) was added to each well allowed to incubate for approximately 3 hours. This reagent was a buffered solution which contains resazurin, metabolically active cells were able to reduce rezarurin (blue) into resorufin (pink) which was highly fluorescent. This measured fluorescence was used as a readout for cell viability.
After incubation, the plates were read at Ex 560 nm Em 590 nm (Cytation 3, BioTek). Dose-response curves were generated and EC50 concentration values were calculated using non-linear regression curve fit in the GraphPad Prism (San Diego, Calif.) or Dotmatics' Studies Software (Bishops Stortford, UK). For EC50 of >10 μM, the percent inhibition at 10 μM is provided.

[4] = test system: Wnt activity (Sp5-Luc reporter, SW480 colon carcinoma cells); experiment: Wnt activity screening assay: Sp5-Luc reporter gene in SW480 colon carcinoma cells; conditions: Homo sapiens, overnight incubation, 10-point curve from 10 μM
Description: The screening assay for Wnt activity is described as follows. Reporter cell lines can be generated by stably transducing cancer cell lines (e.g., colon cancer) or primary cells (e.g., IEC-6 intestinal cells) with a lentiviral construct that includes a Wnt-responsive promoter driving expression of the firefly luciferase gene.
SW480 colon carcinoma cells were transduced with a lentiviral vector expressing luciferase with a human Sp5 promoter consisting of a sequence of eight TCF/LEF binding sites. SW480 cells stably expressing the Sp5-Luc reporter gene and a hygromycin resistance gene were selected by treatment with 150 μg/mL of hygromycin for 7 days. These stably transduced SW480 cells were expanded in cell culture and used for all further screening activities. Each compound was dissolved in DMSO as a 10 mM stock and used to prepare compound source plates. Serial dilution (1:3, 10-point dose-response curves starting from 10 μM) and compound transfer was performed using the ECHO 550 (Labcyte, Sunnyvale, Calif.) into 384-well white solid bottom assay plates (Greiner Bio-One) with appropriate DMSO backfill for a final DMSO concentration of 0.1%. For Sp5-Luc reporter gene assays, the cells were plated at 4,000 cells/well in 384-well plates with medium containing 1% fetal bovine serum and incubated overnight at 37° C. and 5% CO2. Following incubation, 20 μl of BrightGlo luminescence reagent (Promega) was added to each well of the 384-well assay plates. The plates were placed on an orbital shaker for 2 min and then luminescence was quantified using the Envision (Perkin Elmer) plate reader. Readings were normalized to DMSO only treated cells, and normalized activities were utilized for EC50 calculations using the dose-response log (inhibitor) vs. response-variable slope (four parameters) nonlinear regression feature available in GraphPad Prism 5.0 (or Dotmatics). For EC50 of >10 μM, the percent inhibition at 10 μM is provided.

SMILES | EC50 [1] | EC50 [2] | EC50 [3] | EC50 [4]
Fc1cccc(-c2cccc3[nH]c(-c4n[nH]c5ccc(-c6cccnc6)nc45)cc23)c1 [Compound 4, 3-(4-(3-Fluorophenyl)-1H-indol-2-yl)-5-(pyridin-3-yl)-1H-pyrazolo[4,3-b] pyridine] | 439 nM | 974 nM | 9660 nM | 209 nM
O=C(Nc1cncc(-c2ccc3[nH]nc(-c4cc5c(-c6cccc(F)c6)cccc5[nH]4)c3n2)c1)C1CCCCC1 [Compound 23, N-(5-(3-(4-(3-Fluorophenyl)-1H-indol-2-yl)-1H-pyrazolo[4,3-b]pyridin-5-yl)pyridin-3-yl)cyclohexanecarboxamide] | 1010 nM | 1280 nM | 6570 nM | 1630 nM
Fc1cccc(-c2cccc3[nH]c(-c4n[nH]c5ccc(-c6cncc(CN7CCC(F)(F)C7)c6)nc45)cc23)c1 [Compound 26, 5-(5-((3,3-Difluoropyrrolidin-1-yl)methyl)pyridin-3-yl)-3-(4-(3-fluorophenyl)-1H-indol-2-yl)-1H-pyrazolo[4,3-b]pyridine] | 530 nM | 409 nM | 3110 nM | 981 nM
Cc1ccncc1-c1ccc2[nH]nc(-c3cc4c(-c5ccc(F)cc5)cccc4[nH]3)c2n1 [Compound 33, 3-(4-(4-Fluorophenyl)-1H-indol-2-yl)-5-(4-methylpyridin-3-yl)-1H-pyrazolo [4,3-b]pyridine] | 388 nM | 1230 nM | 6740 nM | 1020 nM
CC(C)CC(=O)Nc1cncc(-c2ccc3[nH]nc(-c4cc5c(-c6ccccc6F)cccc5[nH]4)c3n2)c1 [Compound 58, N-(5-(3-(4-(2-Fluorophenyl)-1H-indol-2-yl)-1H-pyrazolo[4,3-b]pyridin-5-yl)pyridin-3-yl)-3-methylbutanamide] | 72 nM | 628 nM | 1210 nM | 254 nM
O=C(Nc1cncc(-c2ccc3[nH]nc(-c4cc5c(-c6ccccc6F)cccc5[nH]4)c3n2)c1)C1CC1 [Compound 76, N-(5-(3-(4-(2-Fluorophenyl)-1H-indol-2-yl)-1H-pyrazolo[4,3-b]pyridin-5-yl)pyridin-3-yl)cyclopropanecarboxamide] | 51 nM | 502 nM | 895 nM | 164 nM
CC(C)Nc1cncc(-c2ccc3[nH]nc(-c4cc5c(-c6cccnc6)cccc5[nH]4)c3n2)c1 [Compound 96, N-Isopropyl-5-(3-(4-(pyridin-3-yl)-1H-indol-2-yl)-1H-pyrazolo[4,3-b]pyridin-5-yl)pyridin-3-amine] | 75 nM | 214 nM | 604 nM | 107 nM
c1cncc(-c2ccc3[nH]nc(-c4cc5c(N6CCCCC6)cccc5[nH]4)c3n2)c1 [Compound 172, 3-(4-(Piperidin-1-yl)-1H-indol-2-yl)-5-(pyridin-3-yl)-1H-pyrazolo[4,3-b] pyridine] | 126 nM | 295 nM | 2150 nM | 253 nM
CN(C)Cc1cncc(-c2ccc3[nH]nc(-c4cc5c(N6CCCCC6)cccc5[nH]4)c3n2)c1 [Compound 181, N,N-Dimethyl-1-(5-(3-(4-(piperidin-1-yl)-1H-indol-2-yl)-1H-pyrazolo[4,3-b]pyridin-5-yl)pyridin-3-yl)methanamine] | 1520 nM | 870 nM | 3150 nM | 899 nM
c1cc(N2CCCCC2)c2cc(-c3n[nH]c4ccc(-c5cncnc5)nc34)[nH]c2c1 [Compound 195, 3-(4-(Piperidin-1-yl)-1H-indol-2-yl)-5-(pyrimidin-5-yl)-1H-pyrazolo[4,3-b] pyridine] | 31 nM | 1280 nM | 5590 nM | 1180 nM
CC(C)CC(=O)Nc1cncc(-c2ccc3[nH]nc(-c4cc5c(N6CCN(C)CC6)cccc5[nH]4)c3n2)c1 [Compound 226, 3-Methyl-N-(5-(3-(4-(4-methylpiperazin-1-yl)-1H-indol-2-yl)-1H-pyrazolo [4,3-b]pyridin-5-yl)pyridin-3-yl)butanamide] | 359 nM | 2550 nM | 1930 nM | 2140 nM
